Test [1] has as its system PC3-M cells. Description: Single cell motility assay with KBU2046-biotin. It is filed as cell-based, human. Conditions: 10 μM, three days. On the procedure:
PC3-M cells were pre-treated with 10 μM KBU2046 or with KBU2046-biotin for three days, and single cell motility assays conducted.
FIGS. 23A-C. […] PC3-M cells were pre-treated with 10 μM KBU2046 or with KBU2046-biotin for three days, and single cell motility assays conducted.

Test [2] deals with array of over 9,000 human proteins. Description: ProtoArray Human Protein Microarray hybridization. The test is classed as binding. How it is done: FIGS. 19A-D. KBU2046 binds to intact cells, but not to isolated proteins. (A) Chemical structure of KBU2046 linked to biotin (KBU2046-biotin). […] PC3-M cells were pre-treated with 10 μM KBU2046 or with KBU2046-biotin for three days, and single cell motility assays conducted. Data are the mean±SEM. […] PC3-M cells were labeled with […]+/−10 μM free KBU2046, followed by detection with FITC-streptavidin, and visualization by fluorescent microscopy (with equal exposure times). (D) Protein array hybridization. KBU2046-biotin was hybridized to ProtoArray® Human Protein Microarray's at 0.5 and 10 μM with and without 10-fold excess free KBU2046. Proteins were first sought that met the following criteria, and did so at both 0.5 and 10 μM concentrations of KBU2046-biotin (in the absence of free KBU2046): Z-Score greater than 2.5, Z-Factor greater than 0.5, CI P-value less than 0.05, negative control value <2,000 (relative fluorescence units; RFUs), and a signal/negative control signal of >10 and >5 for 10 μM and 0.5 μM conditions, respectively. This yielded 3 proteins, shown in table, for an initial hit rate of 0.03%. It was then required that free KBU2046 inhibit binding by >75% of the two remaining candidates, eliminating isovaleryl-CoA dehydrogenase (ICD). […] The positive control used in protein arrays was staurosporine. Staurosporine is similar to genistein in that both are small compound natural products that are broad spectrum kinase inhibitors. […] The vast majority of these proteins were kinases. Both HSP90β and CDC37 were present on the protein arrays, and were not bound by KBU2046-biotin.

Test [3] deals with PC3-M cells. Description: Cell labeling with FITC-streptavidin detection. The note with it: +/−10 μM free KBU2046. It is filed as cell-based, human.
The test system of test [4] is protein phosphorylation (kinome) in PC3-M and PC3 cells. Description: KinomeView phospho-motif antibody screen. It is filed as cell-based, human. The note with it: 10 μM, 3 days, ±TGFβ. On the procedure: FIG. 14A-D. Proteomic analysis of the effects of KBU2046 on the kinome. Screening for effects on the kinome. PC3-M cells were pre-treated with 10 μM KBU2046, genistein or vehicle control for 3 days, then with ±TGFB, as indicated. Resultant cell lysate, as well as lysate from tumors from mice treated with 150 mg/kg KBU2046 or control mice (from manuscript FIG. 3A), were then probed with the KinomeView® panel of antibodies by Western blot. In instances where KBU2046 was inhibiting protein phosphorylation in cells and in tumors, a repeat experiment of PC3-M cells was conducted. In addition to including PC3-M cells, experiments were expanded to examine effects on PC3 cells. […] (C,D) All other Western blots of phospho-motif antibodies that were evaluated on initial screen. NI=tumor not informative; this denotes a tumor sample that yielded an abnormal coomassie blue staining pattern.
Screening for changes in the kinome induced by KBU2046 were evaluated with the Kinoview™ assay system. […]
The KinomeView® panel of antibodies (Cell Signaling Technology, Inc.) detects established protein phosphorylation motifs, and were was to probe for KBU2046-induced changes in protein phosphorylation (FIG. 5A; FIGS. 14A-D). […] Genistein was evaluated under identical treatment conditions for comparison. […]

The target in test [5] is T1, MKK4 (Homo sapiens, UniProt P45985).
T1 sequence (P45985 1-399): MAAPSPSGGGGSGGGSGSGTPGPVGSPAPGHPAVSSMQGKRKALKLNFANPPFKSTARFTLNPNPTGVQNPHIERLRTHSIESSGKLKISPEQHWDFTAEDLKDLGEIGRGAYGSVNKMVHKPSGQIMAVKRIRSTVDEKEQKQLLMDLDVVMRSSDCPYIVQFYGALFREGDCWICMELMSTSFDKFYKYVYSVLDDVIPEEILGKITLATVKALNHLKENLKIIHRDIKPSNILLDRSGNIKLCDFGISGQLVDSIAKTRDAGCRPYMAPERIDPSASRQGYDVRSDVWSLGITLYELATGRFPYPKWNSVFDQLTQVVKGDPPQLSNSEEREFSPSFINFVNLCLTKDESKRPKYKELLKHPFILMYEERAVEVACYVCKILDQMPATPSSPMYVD
Conditions: low nanomolar concentrations; cited from earlier work.

Regarding `O=C(CCCC[C@@H]1SC[C@@H]2NC(=O)N[C@@H]21)NCCOCCOCCOCCOc1ccc2c(c1)OCC(c1ccc(F)cc1)C2=O` (stereo partly shown) [KBU2046-biotin], the “biological activity in single cell motility” value in test [1] is “biologically active”. Moreover, the “binding to protein array” value in test [2] (0.5 and 10 μM) was “lack of binding”. In addition, in test [2] (0.5 and 10 μM, before competition criterion), the “initial hit rate on protein array” value was determined as 0.03%. The “labeling of intact cells” value in test [3] is “labels cells in a manner that can be competed off”.
As for `O=c1c(-c2ccc(O)cc2)coc2cc(O)cc(O)c12` [genistein, 4′,5,7-trihydroxyisoflavone], the “changes in protein phosphorylation” value in test [4] is given as “widespread changes in protein phosphorylation”. Further, the “inhibition of MKK4 kinase activity (literature)” value in test [5] is listed as “inhibited the kinase activity”.
With `CN[C@@H]1C[C@H]2O[C@@](C)([C@@H]1OC)n1c3ccccc3c3c4c(c5c6ccccc6n2c5c31)C(=O)NC4` [staurosporine, reference compound], in test [2] (positive control), the “number of proteins bound at >/=10 fold above background” value came out at 214 proteins.

The record behind these values is US10780076B2, “Inhibition of cancer cell motility” (Northwestern University, priority 2014, dated 2020).
